Assay: in vitro dissolution testing in simulated gastric fluids, Type 1 USP dissolution apparatus
Format: physicochemical
Conditions: coated trilayer tablet of the Example, 0.01 N hydrochloric acid, 100 rpm, 37° C.
Method: The coated tablets were subjected to in vitro dissolution testing in simulated gastric fluids (0.01 N hydrochloric acid) at 100 rpm and 37° C. using Type 1 USP dissolution apparatus. [table]

SMILES	% released (0 hours) [%]	% released (1 hour) [%]	% released (2 hours) [%]	% released (4 hours) [%]	% released (6 hours) [%]	% released (8 hours) [%]
C[C@@](Cc1ccc(O)c(O)c1)(NN)C(=O)O [Carbidopa]	0	22	31	52	76	86
N[C@@H](Cc1ccc(O)c(O)c1)C(=O)O [levodopa]	0	24	33	57	82	95

From patent US8187633B2, “Controlled release coated tablets having prolonged gastric retention” (Sun Pharma Advanced Research Company Limited, priority 2005, dated 2012)
